Values after ≈ are worked out from the molar mass of the structure shown. Where two headings read alike, the source gives them in different places.

As usually defined, the EC50 is the concentration at which the effect is half-maximal. As a reminder, the EC90 is the concentration at which the effect reaches the 90% level.

Series [1] deals with Escherichia coli ATCC 25922. Kind of series: Microbroth dilution: EC50 of ampicillin and ceftriaxone in absence and presence of P1A. Type of series: cell-based. As to conditions: Escherichia coli, ATCC25922, P1A 0, read-out: Ampiellin EC50. On the procedure:
(§1) Escherichia coli strain 25922 was cultured from glycerol stocks to logarithmic growth in cation adjusted Mueller-Hinton broth at 37° C. in an atmospheric environment and diluted in cation adjusted Mueller-Hinton broth to achieve a starting in well concentration of 5×10^5 CFU/mL. Serial 2-fold dilution of antimicrobial compounds were prepared in cation adjusted Mueller-Hinton broth to achieve final in well concentration of 128 μg/mL to 0.13 μg/mL for ampicillin and 4 μg/mL 4 ng/mL in the absence or presence of serial 10-fold dilutions of P1A, P3A, or P4A β-lactamase standard, 5 pg/mL to 50 ng/mL for ampicillin and […] to 500 ng/mL for ceftriaxone, ceftazidime, meropenem, cefepime, cefazolin, amp/sulbactam, cefoperazone, cefotaxime, and cefuroxime. Antibiotics were either added to the P1A and incubated for 30 min at 37° C. (pre-incubation) prior to addition of bacteria, or added to the plates following the addition of P1A, P3A, P4A, and bacteria (simultaneous). All concentrations and combinations were evaluated in triplicate in a 96-well plate format that contained media only, compound plus media only (colorimetric control), and untreated bacterial controls.
The 50% effective inhibitory concentration (EC50) of ampicillin and ceftriaxone against Escherichia coli was determined in the absence and presence of P1A β-lactamase. For the purposes of these studies, the stated effective concentration was the initial concentration of ampicillin or ceftriaxone added at the beginning of the experiment, and not a concentration measured during the course of the experiment or at the end of the incubation period.
Antibiotics were either added to the P1A and incubated for 30 min at 37° C. (Pre-incubation) prior to addition of bacteria, or added to the plates following the addition of P1A and bacteria (Simultaneous). All concentrations and combinations were evaluated in triplicate in a 96-well plate format. Following overnight incubation, the 0D625 of the plates was measured in a Spectramax 384 plate reader and the data were imported into a customized Excel spreadsheet for the determination of the 50% effective inhibitory concentration at (EC50) by linear regression analysis. For the purposes of these studies, the stated effective concentration is the initial concentration of ampicillin or ceftriaxone added at the beginning of the experiment, and not a concentration measured during the course of the experiment or at the end of the incubation period.
Antibiotics were either added to the P1A and incubated for 30 min at 37° C. (Pre-incubation) prior to addition of bacteria, or added to the plates following the addition of P1A and bacteria (Simultaneous). All concentrations and combinations were evaluated in triplicate in a 96-well plate format. Following overnight incubation, the OD625 of the plates was measured in a Spectramax 384 plate reader and the data were imported into a customized Excel spreadsheet for the determination of the 50% effective inhibitory concentration (EC50).
Antibiotics were added to the P1A bacteria (Simultaneous). All concentrations and combinations were evaluated in triplicate in a 96-well plate format. Following overnight incubation, the OD625 of the plates was measured in a Spectramax 384 plate reader and the data were imported into a customized Excel spreadsheet for the determination of the 50% effective inhibitory concentration at (EC50) by linear regression analysis.
Background: Dilution methods test growth across graded concentrations, often in twofold steps.

Series [2] relates to Escherichia coli ATCC 25922. Kind of series: microbe, parasite or virus in culture. Format: cell-based. As to conditions: for EC50 / EC90: Escherichia coli, ATCC25922, no enzyme.
Series [3] has as its system Escherichia coli ATCC 25922. Description: microbe, parasite or virus in culture. Type of series: cell-based. Particulars: for EC90: Escherichia coli, ATCC25922, no enzyme. As for the experimental part: as §1
Next, the 90% effective inhibitory concentration (EC90) of ampicillin, ceftriaxone, ceftazidime, meropenem, cefepime, cefazolin, amp/sulbactam, cefoperazone, cefotaxime, and cefuroxime against Escherichia coli was determined in the absence and presence of P1A, P3A, or P4A β-lactamase. For the purposes of these studies, the stated effective concentration was the initial concentration of ampicillin, ceftriaxone, ceftazidime, meropenem, cefepime, cefazolin, amp/sulbactam, cefoperazone, cefotaxime, and cefuroxime added at the beginning of the experiment, and not a concentration measured during the course of the experiment or at the end of the incubation period.
Specifically, the assay was performed by diluting (2-fold steps) the chosen antibiotic across the rows of a 96 well dish. The MIC was determined as the point at which the diluted antibiotic transitions from killing to not killing the bacteria (in this case, an E. coli strain that is sensitive to all antibiotics). P1A, P3A, and P4A were diluted (10 fold steps) down the columns (the β-lactamase concentrations increased down the columns). […] The latter point was used as the cut-off point. […] However, for this assay, the absolute MIC is not the most important parameter. The most relevant readout was the β-lactamase concentration at which the apparent MIC increases to the maximum amount of antibiotic tested.
E coli 29522 was incubated overnight in the presence of serial dilutions of antibiotic and the indicated amounts of β-lactamase protein from cell culture supernatants in a 96 well plate. Bacterial density (OD625) of the cultures was measured and the concentration at which the density was reduced by 90% relative to an untreated bacterial control (EC90) was determined. The assay was performed on two separate days and the data reported as Rep1 and Rep2. NA=not assayed.
E coli 29522 was incubated overnight in the presence of serial dilutions of antibiotic and the indicated amounts of β-lactamase protein from cell culture supernatants in a 96 well plate. Bacterial density (OD625) of the cultures was measured and the concentration at which the density was reduced by 90% relative to an untreated bacterial control (EC90) was determined.

Series [4] can be described thus: Preliminary enzymatic activity of P1A mutants from B. subtilis supernatants. Type of series: biochemical. As to conditions: B. subtilis supernatant, one substrate concentration. On the procedure: β-lactamase activity of the mutants was further characterised from E. coli cell lysates and B. subtilis growth supernatant with ampicillin, cefotaxime, ceftriaxone, cefuroxime, ceftazidime, meropenem and imipenem. The activities were determined using only one substrate concentration of each antibiotic tested. Selection of the antibiotic concentration was done with the antibiotic concentration as high as was practical, [S]>>Km. Based on these preliminary experiments, more accurate kinetic parameters were determined for a couple of mutants from both the site-directed and the random mutagenesis research lines. All the mutant enzymes selected for more detailed study were expressed in the B. subtilis host strain RS303. The cells carrying the mutated proteins were grown in minimal medium over-night after which the cells were harvested and the supernatant was concentrated in 1:10 with Amicon Ultra-4 centrifugal devices, MWCO 10000 (Amicon). Protein concentration in each culture supernatant was estimated from 12% SDS-PAGE (Criterion XT Bis-Tris, BioRad, Calif., USA) using the P1A reference material A18K31 as a standard. Kinetic parameters were measured for cefotaxime, ceftriaxone and cefuroxime for each selected mutant strain. The site-directed mutants were designed to hydrolyze cefotaxime and random mutants were screened with ceftriaxone, which made these antibiotics natural choices for determining kinetic parameters.

The mark [5] stands for this setting: no enzyme, 2nd value, high test 2 μg/mL.

On to `CC1(C)S[C@@H]2[C@H](NC(=O)[C@H](N)c3ccccc3)C(=O)N2[C@H]1C(=O)O` [Ampicillin], for which the EC50 in series [1] (pre-incubation, Table 12) came to 16 µg/mL; in series [1] (pre-incubation, Table 13) it was 16 µg/mL; in series [1] (simultaneous, Table 12), 16 µg/mL; in series [1] (simultaneous, Table 13) it was 16 µg/mL; in series [1] (simultaneous, Table 14 repeat analysis) it was 16 µg/mL; in series [2] (Rep 1, Table 15, read-out: Ampiellin EC50), 2 µg/mL (≈ 5.72 µM). For the same compound, the EC50 in series [2] (Rep 2, Table 15, read-out: Ampiellin EC50) amounted to 4 µg/mL (≈ 11.4 µM).

Turning to `Cc1nnc(SCC2=C(C(=O)O)N3C(=O)[C@@H](NC(=O)Cn4cnnn4)[C@H]3SC2)s1` [Cefazolin], the EC90 in series [2] (1st value, high test 64 μg/mL, read-out: Cefazolin EC90) turned out to be 2 µg/mL (≈ 4.4 µM); in series [2] (2nd value, high test 64 μg/mL, read-out: Cefazolin EC90), 2 µg/mL (≈ 4.4 µM).

`CO/N=C(\C(=O)N[C@@H]1C(=O)N2C(C(=O)[O-])=C(C[N+]3(C)CCCC3)CS[C@H]12)c1csc(N)n1` [Cefepime]: the EC50 came out at 0.06 µg/mL (≈ 0.125 µM) in series [2] (1st value, high test 2 μg/mL, read-out: Cefepime EC50) and 0.03 µg/mL (≈ 0.0624 µM) in series [2] (2nd value, high test 2 μg/mL, read-out: Cefepime EC50). In addition, in series [2] (setting [5]), the “Cefepime EC50” value was 0.03/0.03 μg/mL.

`CCN1CCN(C(=O)N[C@@H](C(=O)N[C@@H]2C(=O)N3C(C(=O)O)=C(CSc4nnnn4C)CS[C@H]23)c2ccc(O)cc2)C(=O)C1=O` [Cefoperazone]: the “Cefoperazone EC90” value in series [3] (no enzyme, 1st value, high test 8 μg/mL) was 0.25/0.25 μg/mL; in series [2] (no enzyme, 2nd value, high test 8 μg/mL) it was 0.25/0.25 μg/mL. Further, the EC90 in series [2] (1st value, high test 8 μg/mL, read-out: Cefoperazone EC90) was determined as 0.25 µg/mL (≈ 0.387 µM); in series [2] (2nd value, high test 8 μg/mL, read-out: Cefoperazone EC90), 0.13 µg/mL (≈ 0.201 µM).

Regarding `CO/N=C(\C(=O)N[C@@H]1C(=O)N2C(C(=O)O)=C(COC(C)=O)CS[C@H]12)c1csc(N)n1` [Cefotaxime], the EC90 is 0.008 µg/mL in series [3] (2nd value, high test 2 μg/mL, read-out: Cefotaxime EC90) and 0.004 µg/mL (≈ 0.00878 µM) in series [2] (1st value, high test 2 μg/mL, read-out: Cefotaxime EC90). The “Cefotaxime EC90” value in series [2] (no enzyme, 1st value, high test 2 μg/mL) is recorded as 0.004/0.004 μg/mL; in series [2] (setting [5]) it was 0.004/0.004 μg/mL.

On to `CC(C)(O/N=C(\C(=O)N[C@@H]1C(=O)N2C(C(=O)[O-])=C(C[n+]3ccccc3)CS[C@H]12)c1csc(N)n1)C(=O)O` [Ceftazidime], for which the EC50 in series [2] (1st value, high test 4 μg/mL, read-out: Ceftazidime EC50) is 0.13 µg/mL (≈ 0.238 µM). In addition, the “Ceftazidime EC50” value in series [2] (no enzyme, 1st value, high test 4 μg/mL) was 0.13/0.13 μg/mL; in series [2] (no enzyme, 2nd value, high test 4 μg/mL), 0.5 µg/mL.

In the case of `CO/N=C(\C(=O)N[C@@H]1C(=O)N2C(C(=O)O)=C(COC(N)=O)CS[C@H]12)c1ccco1` [Cefuroxime], the EC90 was determined as 4 µg/mL in series [3] (1st value, high test 128 μg/mL, read-out: Cefuroxime EC90) and 4 µg/mL (≈ 9.43 µM) in series [2] (2nd value, high test 128 μg/mL, read-out: Cefuroxime EC90). Besides, the “Cefuroxime EC90” value amounted to 2.0 µg/mL in series [3] (no enzyme, 1st value, high test 128 μg/mL) and 2.0 µg/mL in series [2] (no enzyme, 2nd value, high test 128 μg/mL).

Consider `C[C@@H](O)[C@H]1C(=O)N2C(C(=O)O)=C(S[C@@H]3CN[C@H](C(=O)N(C)C)C3)[C@H](C)[C@H]12` [Meropenem], for which the EC50 in series [2] (1st value, high test 1 μg/mL, read-out: Meropenem EC50) is 0.06 µg/mL (≈ 0.156 µM); in series [2] (2nd value, high test 1 μg/mL, read-out: Meropenem EC50), 0.06 µg/mL (≈ 0.156 µM). Further, in series [2] (no enzyme, 2nd value, high test 1 μg/mL), the “Meropenem EC50” value was 0.03 µg/mL.

With IS203: P1A with T160F, in series [4], the “AMP = ampicillin enzymatic activity” value was 0.01 multiples of P1A, the “CAZ = ceftazidime enzymatic activity” value is given as 0.13 multiples of P1A, the “CRO = ceftriaxone enzymatic activity” value was 0.00 multiples of P1A and the “CTX = cefotaxime enzymatic activity” value was 0.01 multiples of P1A. Also, the “CXM = cefuroxime enzymatic activity” value in series [4] is given as 0.00 multiples of P1A.

For the origin of these results see US9464280B1, “Beta-lactamases with improved properties for therapy” (priority 2014, dated 2016).
